According to patent US10941157B2, “Pesticidal compositions and uses thereof” (Gilead Apollo, LLC, priority 2015, dated 2021):
In brackets after ≈: the same amount, converted by molar mass.

Experiments:
Botrtyis cinerea (Bc) = test: In vitro pathogen growth inhibition assay, Bc; type: cell-based; conditions: 48 h, ≥90% growth inhibition; 48 hours; vs 2% DMSO control; read-out: Compound Concentration (ppm) sufficient for ≥90% inhibition of Bc
Method in brief: (§1)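 Spores in 17% V8 liquid medium, or 1.5 mm Rs mycelial plugs in ¼ PDB, incubated with compound; final concentration checked by OD600 for precipitation. OD readings at 24 and 48 h, blank-subtracted, plus visual ratings; value is concentration giving ≥90% growth inhibition.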

[1] = tested on: Collectotrichum graminicola (Cg); test: In vitro pathogen growth inhibition assay, Cg; type: cell-based; conditions: 48 h, ≥90% growth inhibition; 48 hours; vs 2% DMSO control; read-out: Compound Concentration (ppm) sufficient for ≥90% inhibition of Cg
Method in brief: as §1

Diplodia maydis (Dm) = test: In vitro pathogen growth inhibition assay, Dm; type: cell-based; conditions: Stenocarpella maydis, 48 h, ≥90% growth inhibition; 48 hours; vs 2% DMSO control; read-out: Compound Concentration (ppm) sufficient for ≥90% inhibition of Dm
Method in brief: as §1

[2] = tested on: Fusarium moniliforme (Fm); test: In vitro pathogen growth inhibition assay, Fm; type: cell-based; conditions: Fusarium verticillioides; ≥90% growth inhibition; 48 hours; vs 2% DMSO control; read-out: Compound Concentration (ppm) sufficient for ≥90% inhibition of Fm
Method in brief: as §1

[3] = tested on: Fusarium virguliforme (Fv); test: In vitro pathogen growth inhibition assay, Fv; type: cell-based; conditions: ≥90% growth inhibition, 48 hours, vs 2% DMSO control, read-out: Compound Concentration (ppm) sufficient for ≥90% inhibition of Fv
Method in brief: as §1

[4] = tested on: Phytophthora capsici (Pc); test: In vitro pathogen growth inhibition assay, Pc; type: cell-based; conditions: 48 h, ≥90% growth inhibition, 48 hours, vs 2% DMSO control, read-out: Compound Concentration (ppm) sufficient for ≥90% inhibition of Pc
Method in brief: as §1

Rhizoctonia solani (Rs) = test: In vitro pathogen growth inhibition assay, Rs (mycelial plugs); type: cell-based; conditions: Rhizoctonia solani, 48 h, ≥90% growth inhibition; mycelial plugs; 48 hours; vs 2% DMSO control; read-out: Compound Concentration (ppm) sufficient for ≥90% inhibition of Rs
Method in brief: as §1

Septoria tritici (St) = test: In vitro pathogen growth inhibition assay, St; type: cell-based; conditions: Zymoseptoria tritici, 48 h, ≥90% growth inhibition; 48 hours; vs 2% DMSO control; read-out: Compound Concentration (ppm) sufficient for ≥90% inhibition of St
Method in brief: as §1

[5] = tested on: Blumeria graminis f. sp. hordei; test: Foliar protection test for barley powdery mildew control; type: in vivo; conditions: foliar spray on Hordeum vulgare cv. Perry, inoculated 24 hours after treatment, evaluated 7 days later
Protocol: Plants (Hordeum vulgare cv. Perry) were grown for 6 days in 2-inch square pots containing Metromix 200 medium amended with fertilizer. […] After inoculation with the pathogen of Blumeria graminis f. sp. hordei, plants were kept at conditions of 20 to 22° C., 70% relative humidity, and 200 uM of light to facilitate infection and disease development. […] An atomizer was used for applying the solution onto both sides of the leaves until thoroughly wetted. […] At 24 hours after treatment, the plants were moved to a cooler chamber and inoculated by shaking well-colonized, untreated stock plants above the treated plants. This allowed producing a settling cloud of spores and resulting in uniform infection. Efficacy was evaluated in 7 days later by examining leaves for colonization and growth of mildew. Table 4 lists the results of barley powdery mildew control at a compound concentration of 10 ppm or lower.

Sphaerotheca fuliginea = test: Foliar protection for cucumber powdery mildew control; type: in vivo; conditions: foliar spray on Cucumis sativus cv. Straight Eight, inoculated 24 hours after treatment, evaluated 7 days later
Protocol: Plants (Cucumis sativus cv. Straight Eight) were grown for 10 days in 2.5-inch square pots containing Metromix 200 medium amended with fertilizer. For propagation, plants were maintained in a growth chamber at conditions of 23 to 27° C., 16 hour light cycle, ambient humidity, and with sub-irrigation as needed. After inoculation with the pathogen of Sphaerotheca fuliginea, plants were kept at conditions of 23 to 27° C., 16 hour light cycle, 60% relative humidity, and with sub-irrigation as needed to facilitate infection and disease development. […] An atomizer was used for applying the solution onto both sides of the leaves until thoroughly wetted. […] At 24 hours after treatment, the plants were moved to a cooler chamber and inoculated by shaking well-colonized, untreated stock plants above the treated plants. This allowed producing a settling cloud of spores and resulting in uniform infection. Inoculated plants were kept near other sporulating stock plants to allow for infection of newly emerging leaves. Efficacy was evaluated in 7 days later by examining leaves for colonization and growth of mildew. Table 5 lists the results of cucumber powdery mildew control at a compound concentration of 10 ppm or lower.

[6] = tested on: Mycosphaerella graminicola (synthetic Septoria tritici); test: Foliar protection test for wheat septoria leaf blotch control; type: in vivo; conditions: foliar spray on Triticum aestivum cv. WinterHawk, inoculated 1 hour after treatment, evaluated 16 days later
Fusarium graminearum = type: in vivo; conditions: spray on flowering Triticum aestivum cv. Samson, inoculated 24 hours after treatment, evaluated 14 days later
Puccinia triticina = test: Foliar protection test for wheat leaf rust control; type: in vivo; conditions: foliar application to wheat (Triticum aestivum cv. Winterhawk), evaluated 10 days later
Phakopsora pachyrhizi = test: Foliar protection test for Asian soybean rust control; type: in vivo; conditions: foliar application to soybean (Glycine max AG4832), percent disease area evaluated 14 days later

CCc1ccc(F)cc1[C@H](Cn1c(=O)n(C(C)(C)C(=O)NC(C)C)c(=O)c2c(C)c(-n3nccn3)sc21)OC[C@@H](C)C#N [Compound I-281, 2-(1-((R)-2-((S)-2-cyanopropoxy)-2-(2-ethyl-5-fluorophenyl)ethyl)-5-methyl-2,4-dioxo-6-(2H-1,2,3-triazol-2-yl)-1,4-dihydrothieno[2,3-d]pyrimidin-3 (2H)-yl)-N-isopropyl-2-methylpropanamide]
IC90 (Botrtyis cinerea (Bc)): 0.08 µg/mL (≈ 0.131 µM) | IC90 [1]: 0.08 µg/mL (≈ 0.131 µM) | IC90 (Diplodia maydis (Dm)): 2 µg/mL (≈ 3.28 µM) | IC90 [2]: 0.08 µg/mL (≈ 0.131 µM) | IC90 [3]: 0.08 µg/mL (≈ 0.131 µM) | IC90 [4]: > 50 µg/mL | IC90 (Rhizoctonia solani (Rs)): 0.08 µg/mL (≈ 0.131 µM) | IC90 (Septoria tritici (St)): > 50 µg/mL | Barley Powdery Mildew Control at a compound concentration of 10 ppm or lower [5]: AA (≥85% control of barley powdery mildew) | Cucumber Powdery Mildew Control at a compound concentration of 10 ppm or lower (Sphaerotheca fuliginea): AA (≥85% control of cucumber powdery mildew) | Septoria Leaf Blotch Control at a compound concentration of 25 ppm or lower [6]: AA (≥85% control of wheat septoria leaf blotch) | Wheat Fusarium Head Blight Control at a compound concentration of 25 ppm or lower (Fusarium graminearum): C (from 25 to 49% control of wheat fusarium head blight) | Wheat Leaf Rust Control at a compound concentration of 10 ppm or lower (Puccinia triticina): AA (≥85% control of wheat leaf rust) | Asian Soybean Rust Control at a compound concentration of 25 ppm or lower (Phakopsora pachyrhizi): D (<25% control of Asian soybean rust)

CCOC(=O)c1sc2c(c1C)c(=O)n(C(C)(C)C(=O)NC(C)C)c(=O)n2C[C@H](OCC#N)c1cc(F)ccc1OC [Compound I-251, (R)-ethyl-1-(2-(cyanomethoxy)-2-(5-fluoro-2-methoxyphenyl)ethyl)-3-(1-(isopropylamino)-2-methyl-1-oxopropan-2-yl)-5-methyl-2,4-dioxo-1,2,3,4-tetrahydrothieno[2,3-d]pyrimidine-6-carboxylate]
IC90 (Botrtyis cinerea (Bc)): 0.4 µg/mL (≈ 0.68 µM) | IC90 [1]: 2 µg/mL (≈ 3.4 µM) | IC90 (Diplodia maydis (Dm)): 2 µg/mL (≈ 3.4 µM) | IC90 [2]: 0.08 µg/mL (≈ 0.136 µM) | IC90 [3]: 0.4 µg/mL (≈ 0.68 µM) | IC90 [4]: > 50 µg/mL | IC90 (Rhizoctonia solani (Rs)): 0.4 µg/mL (≈ 0.68 µM) | IC90 (Septoria tritici (St)): > 10 µg/mL | Barley Powdery Mildew Control at a compound concentration of 10 ppm or lower [5]: AA (≥85% control of barley powdery mildew) | Cucumber Powdery Mildew Control at a compound concentration of 10 ppm or lower (Sphaerotheca fuliginea): AA (≥85% control of cucumber powdery mildew) | Septoria Leaf Blotch Control at a compound concentration of 25 ppm or lower [6]: C (from 25 to 49% control of wheat septoria leaf blotch) | Wheat Fusarium Head Blight Control at a compound concentration of 25 ppm or lower (Fusarium graminearum): C (from 25 to 49% control of wheat fusarium head blight) | Wheat Leaf Rust Control at a compound concentration of 10 ppm or lower (Puccinia triticina): D (<25% control of wheat leaf rust) | Asian Soybean Rust Control at a compound concentration of 25 ppm or lower (Phakopsora pachyrhizi): C (from 25 to 49% control of Asian soybean rust)

COc1ccccc1[C@@H](O)Cn1c(=O)n(C(C)(C)C(=O)NC(C)C)c(=O)c2c(C)c(-n3nccn3)sc21 [Compound I-316, (R)-2-(1-(2-hydroxy-2-(2-methoxyphenyl)ethyl)-5-methyl-2,4-dioxo-6-(2H-1,2,3-triazol-2-yl)-1,4-dihydrothieno[2,3-d]pyrimidin-3 (2H)-yl)-N-isopropyl-2-methylpropanamide]
IC90 (Botrtyis cinerea (Bc)): 0.4 µg/mL (≈ 0.76 µM) | IC90 [1]: 2 µg/mL (≈ 3.8 µM) | IC90 (Diplodia maydis (Dm)): 2 µg/mL (≈ 3.8 µM) | IC90 [2]: 0.08 µg/mL (≈ 0.152 µM) | IC90 [3]: 0.08 µg/mL (≈ 0.152 µM) | IC90 [4]: ≥ 10 µg/mL | IC90 (Rhizoctonia solani (Rs)): 0.08 µg/mL (≈ 0.152 µM) | IC90 (Septoria tritici (St)): > 50 µg/mL | Barley Powdery Mildew Control at a compound concentration of 10 ppm or lower [5]: AA (≥85% control of barley powdery mildew) | Cucumber Powdery Mildew Control at a compound concentration of 10 ppm or lower (Sphaerotheca fuliginea): AA (≥85% control of cucumber powdery mildew) | Septoria Leaf Blotch Control at a compound concentration of 25 ppm or lower [6]: A (from 70% to 84% control of wheat septoria leaf blotch) | Wheat Fusarium Head Blight Control at a compound concentration of 25 ppm or lower (Fusarium graminearum): C (from 25 to 49% control of wheat fusarium head blight) | Wheat Leaf Rust Control at a compound concentration of 10 ppm or lower (Puccinia triticina): AA (≥85% control of wheat leaf rust) | Asian Soybean Rust Control at a compound concentration of 25 ppm or lower (Phakopsora pachyrhizi): A (from 70% to 84% control of Asian soybean rust)

CCOC(=O)c1sc2c(c1C)c(=O)n([C@H](C)C(=O)N(C)C(C)C)c(=O)n2C[C@H](OCCC#N)c1cc(F)ccc1OC [Compound I-229, (R)-ethyl-1-(2-(2-cyanoethoxy)-2-(5-fluoro-2-methoxyphenyl)ethyl)-3-((R)-1-(isopropyl(methyl)amino)-1-oxopropan-2-yl)-5-methyl-2,4-dioxo-1,2,3,4-tetrahydrothieno[2,3-d]pyrimidine-6-carboxylate]
IC90 (Botrtyis cinerea (Bc)): 2 µg/mL (≈ 3.32 µM) | IC90 [1]: 2 µg/mL (≈ 3.32 µM) | IC90 (Diplodia maydis (Dm)): 2 µg/mL (≈ 3.32 µM) | IC90 [2]: 0.08 µg/mL (≈ 0.133 µM) | IC90 [3]: 0.4 µg/mL (≈ 0.664 µM) | IC90 [4]: > 50 µg/mL | IC90 (Rhizoctonia solani (Rs)): 2 µg/mL (≈ 3.32 µM) | IC90 (Septoria tritici (St)): > 50 µg/mL | Barley Powdery Mildew Control at a compound concentration of 10 ppm or lower [5]: AA (≥85% control of barley powdery mildew) | Cucumber Powdery Mildew Control at a compound concentration of 10 ppm or lower (Sphaerotheca fuliginea): AA (≥85% control of cucumber powdery mildew) | Septoria Leaf Blotch Control at a compound concentration of 25 ppm or lower [6]: D (<25% control of wheat septoria leaf blotch) | Wheat Fusarium Head Blight Control at a compound concentration of 25 ppm or lower (Fusarium graminearum): C (from 25 to 49% control of wheat fusarium head blight) | Wheat Leaf Rust Control at a compound concentration of 10 ppm or lower (Puccinia triticina): B (from 50 to 69% control of wheat leaf rust) | Asian Soybean Rust Control at a compound concentration of 25 ppm or lower (Phakopsora pachyrhizi): C (from 25 to 49% control of Asian soybean rust)

COc1ccc(F)cc1[C@@H](O)Cn1c(=O)n([C@@H](C)C(=O)N(C)C(C)C)c(=O)c2c(C)c(-n3nccn3)sc21 [Compound I-189, (S)-2-(1-((R)-2-(5-fluoro-2-methoxyphenyl)-2-hydroxyethyl)-5-methyl-2,4-dioxo-6-(2H-1,2,3-triazol-2-yl)-1,4-dihydrothieno[2,3-d]pyrimidin-3 (2H)-yl)-N-isopropyl-N-methylpropanamide]
IC90 (Botrtyis cinerea (Bc)): 0.4 µg/mL (≈ 0.734 µM) | IC90 [1]: 0.4 µg/mL (≈ 0.734 µM) | IC90 (Diplodia maydis (Dm)): 0.4 µg/mL (≈ 0.734 µM) | IC90 [2]: 0.08 µg/mL (≈ 0.147 µM) | IC90 [3]: 0.4 µg/mL (≈ 0.734 µM) | IC90 [4]: > 50 µg/mL | IC90 (Rhizoctonia solani (Rs)): 0.08 µg/mL (≈ 0.147 µM) | IC90 (Septoria tritici (St)): 50 µg/mL (≈ 91.8 µM) | Barley Powdery Mildew Control at a compound concentration of 10 ppm or lower [5]: AA (≥85% control of barley powdery mildew) | Cucumber Powdery Mildew Control at a compound concentration of 10 ppm or lower (Sphaerotheca fuliginea): AA (≥85% control of cucumber powdery mildew) | Septoria Leaf Blotch Control at a compound concentration of 25 ppm or lower [6]: A (from 70% to 84% control of wheat septoria leaf blotch) | Wheat Fusarium Head Blight Control at a compound concentration of 25 ppm or lower (Fusarium graminearum): C (from 25 to 49% control of wheat fusarium head blight) | Wheat Leaf Rust Control at a compound concentration of 10 ppm or lower (Puccinia triticina): AA (≥85% control of wheat leaf rust) | Asian Soybean Rust Control at a compound concentration of 25 ppm or lower (Phakopsora pachyrhizi): A (from 70% to 84% control of Asian soybean rust)
